Patent US20260115202A1, “TOPICAL COMPOSITIONS COMPRISING AN ESTETROL COMPONENT AND USE OF SAID COMPOSITIONS FOR WOUND HEALING” (NEURALIS SA, priority 2022, published 2026)

Experiments:
[1] = test system: murine dermal fibroblasts (MDF); test: qPCR gene expression in murine dermal fibroblasts; assay type: cell-based, mouse; details: MDF, 10^−7M, qPCR
From the text: Primary human dermal fibroblasts (HDF) were isolated from abdominal skin or leg skin. Primary neonatal normal human epidermal keratinocytes (NHEK) were purchased (Lonza). Murine dermal fibroblasts (MDF), murine epidermal keratinocytes (MEK), murine peritoneal macrophages and murine bone marrow were isolated from C57/B16 (wt). NDb (Lepr+/−) or Db (Lepr−/−) mice. Fibroblasts were isolated and cultured in DMEM supplemented with 10% heat inactivated FBS. 1% penicillin/streptomycin and 1% amphotericin B. At least 4 days prior to performing assays cells were switched to DMEM supplemented with 5% charcoal-stripped FBS. Following treatments, human and murine macrophages were collected in Trizol and RNA isolated using the Trizol plus RNA isolation kit (Invitrogen. Thermo Fisher) according to the manufacturer's instructions. RNA was reverse transcribed to cDNA using GoScript reverse transcriptase (Promega). Quantitative real-time PCR was carried out using 2×Takyon SYBR Green mastermix and a CFX Connect thermocycler. Primers for ERα and ERβ were used to explore changes in ER expression after treatment of MEK and MDF with E2 and E4. To investigate the effect of E2 and E4 on MEK differentiation and the expression of ECM proteins by MDF, primers for. Snail, keratin-1 and fibronectin, collagen I. MMP-2 and MMP-9 were used. Primers for INOS. IL-1B and Tnf-α or Ccl17 were used to assess M1/M2 polarisation status. Primers for GAPDH were used to normalise data. Relative gene expression was set to vehicle controls or M0 expression unless otherwise stated. In vitro cultured murine fibroblasts were treated with either E2, E4, DPN or PPT at 10^−7M. As previously reported. […] Next, zymography was performed on cell supernatants from HDFs treated with either E2 or E4, to evaluate the effect of E2 and E4 on cell-derived MMP activity. […] The magnitude of the effect (and statistical significance) was greater in cells treated with E4. No MMP9 activity was detected in any treatment group. Finally, we explored the effect of E2 and E4 on murine fibroblast expression of extracellular matrix genes, specifically collagen 1 (Colal) and fibronectin (Fn1) (FIG. 20).

[2] = test system: mouse bone marrow derived macrophages (BMDM); test: M1-polarised murine bone marrow derived macrophages, qPCR of M1 markers; assay type: cell-based; details: M1 polarised BMDM, E4 10^−7M, preliminary
Method: Bones were flushed with DMEM supplemented with 1% penicillin/streptomycin and 1% amphotericin B. Bone marrow cells were seeded into 12- or 6-well plates at 1×10^6 cells/ml in DMEM supplemented with 10% FBS and 10% L929-conditioned medium to induce differentiation. After 7-10 days, differentiated macrophages were treated with 10^−7M E2 or E4 in serum free growth medium for 16 hours and polarised to M1-type cells using 100 ng/ml IFN-γ and 1 μg/ml LPS. Following 6- or 24-hours polarisation cells were collected for RNA isolation or flow cytometry.
Following treatments, human and murine macrophages were collected in Trizol and RNA isolated using the Trizol plus RNA isolation kit (Invitrogen. Thermo Fisher) according to the manufacturer's instructions. RNA was reverse transcribed to cDNA using GoScript reverse transcriptase (Promega). Quantitative real-time PCR was carried out using 2×Takyon SYBR Green mastermix and a CFX Connect thermocycler. Primers for ERα and ERβ were used to explore changes in ER expression after treatment of MEK and MDF with E2 and E4. To investigate the effect of E2 and E4 on MEK differentiation and the expression of ECM proteins by MDF, primers for. Snail, keratin-1 and fibronectin, collagen I. MMP-2 and MMP-9 were used. Primers for INOS. IL-1B and Tnf-α or Ccl17 were used to assess M1/M2 polarisation status. Primers for GAPDH were used to normalise data. Relative gene expression was set to vehicle controls or M0 expression unless otherwise stated.
For follow up experiments murine bone marrow derived monocytes were isolated, differentiated (L929 media) and polarised to a pro-inflammatory M1 phenotype (IFN-γ and LPS: for 6 or 24 hours), and co-treated with either E2 or E4 at the optimal concentration identified in THP1 cells (10^−7: FIG. 24). […] Experiments were then undertaken with murine bone marrow derived monocytes differentiated to macrophages with 30 ng/ml MCSF, as opposed to L929 conditioned media.

[3] = test system: human dermal fibroblasts (HDF); test: Scratch wound assay, human dermal fibroblasts; assay type: cell-based; details: HDF, 24 hours, preliminary
From the text: Primary human dermal fibroblasts (HDF) were isolated from abdominal skin or leg skin. Primary neonatal normal human epidermal keratinocytes (NHEK) were purchased (Lonza). Murine dermal fibroblasts (MDF), murine epidermal keratinocytes (MEK), murine peritoneal macrophages and murine bone marrow were isolated from C57/B16 (wt). NDb (Lepr+/-) or Db (Lepr-/-) mice. Fibroblasts were isolated and cultured in DMEM supplemented with 10% heat inactivated FBS. 1% penicillin/streptomycin and 1% amphotericin B. At least 4 days prior to performing assays cells were switched to DMEM supplemented with 5% charcoal-stripped FBS. Cells were seeded into 24 well plates and cultured to form a confluent monolayer, and then scratched with a 1 ml pipette tip. Wells were treated with E2, E4 and/or various estrogen receptor agonists and antagonists. […] A vehicle control containing the equivalent concentration of EtOH and/or DMSO was included, in addition to an untreated negative control. All treatments were diluted to working concentrations in media supplemented with 2% charcoal-stripped FBS. To visualise scratches at the defined endpoint, cells were stained with crystal violet and imaged on a Nikon E400 brightfield microscope. Scratch closure was determined from multiple independent measurements per well. Scratch assays were performed to quantify the effect of E2 and E4 at varying concentrations on HDF migration (FIG. 14). […] 10^-7M and 10^-6M (152%. 147% and 142% respectively). Thus, both E2 and E4 optimally stimulated fibroblast scratch wound closure at 10^-8M, with the higher magnitude of stimulation observed following E2 treatment. Next, an additional experiment was performed using HDF to a) further confirm the effects of E2 and E4 in fibroblasts from a fifth donor and b) explore the relative effect of including CS-FBS in the cell culture media. Three identical sets of scratch assays were performed (comparing vehicle to E2 or E4 treatment at 10^-7M) in DMEM containing either 2% CS-FBS. 0% FBS or 2% FBS (not CS).

| Structure (SMILES) | expression of ERα and ERβ [1] | effect of ER antagonist co-treatment on E4-mediated reduction in IL1-β [2] | effect of ER antagonist co-treatment on E4-induced scratch closure [3] |
| --- | --- | --- | --- |
| N#CC(Cc1ccc(O)cc1)c1ccc(O)cc1 (stereo not shown) [DPN] | increased ERβ expression |  |  |
| Cc1c(-c2ccc(O)cc2)nn(-c2ccc(O)cc2)c1-c1ccc(OCCN2CCCCC2)cc1 [MPP, reference compound] |  | appears to block E4-induced scratch closure and E4-mediated reduction in IL1-β | appears to block E4-induced scratch closure |
| CCCc1c(-c2ccc(O)cc2)nn(-c2ccc(O)cc2)c1-c1ccc(O)cc1 [PPT] | increased ERα |  |  |
